# In patent US9642865B2, “Angiogenesis inhibitors” (THE JOHNS HOPKINS UNIVERSITY, priority 2004, dated 2017):
# How the values were obtained:
# [1] = test system: human umbilical vein endothelial cells (HUVEC); assay: HUVEC proliferation, [3H]-thymidine incorporation; assay type: cell-based; conditions: guanine 10 μM and 20 μM
# Method: (§1) 32,000 FDA drug approvals obtained by Freedom of Information Act requests were condensed to 3,400 unique drug formulations. Drugs were purchased from Sigma, Spectrum Chemicals, MP Biomedicals, The Johns Hopkins Hospital pharmacy, Biomol, and Tocris. 10 mM stock solutions were made using DMSO, water, or ethanol as solvents. Drugs were arrayed in 96-well plates and screened at a final concentration of 10 μM. Cells were incubated with drug for 36 h and proliferation was measured by pulsing with 1 μCi [^3H]-thymidine for 8 h followed by absorption onto glass filters and scintillation counting.
# (§2) IC50 measurements were carried out in triplicate, and analyzed using four parameter logarithmic analysis. Values are presented+/−the standard error of the mean. P-values were calculated using the Student's T-test.
# A library of 1,850 FDA-approved drugs and 600 drugs that entered the clinic via approval in a foreign country or phase II clinical trials was created. To discover new angiogenesis inhibitors among known drugs, the library was screened for inhibition of human umbilical vein endothelial cells (HUVEC) using [^3H]-thymidine incorporation. […] After eliminating known cytotoxic drugs such as taxol and colchicine or drugs that are restricted to topical use, several drugs remained. […]
# HUVEC = assay: Cell cycle analysis of HUVEC; assay type: cell-based, human; conditions: 1 μM MPA + 50 μM guanosine
# From the text: It has been shown that MPA causes cell cycle arrest in activated T and B lymphocytes at G1 (Laliberte, J., Yee, A., Xiong, Y. & Mitchell, B. S. (1998) Blood 91, 2896-2904). Therefore, the effect of MPA on endothelial cell cycle progression was examined.
# Jurkat T cells = assay: Jurkat T-cell proliferation, [3H]-thymidine incorporation; assay type: cell-based
# Method: as §1, §2
# MPA is an immunosuppressive drug widely used to prevent rejection of transplanted organs (Lipsky, J. J. (1996) Lancet 348, 1357-1359). The mechanism of action in the immune system is well established-MPA inhibits de novo biosynthesis of purines in T and B lymphocytes (Allison, A. C. & Eugui, E. M. (2000) Immunopharmacology 47, 85-118). […] Thus, a comparison of HUVEC to Jurkat T cells for sensitivity to MPA in the presence and absence of guanine was carried out. […] Addition of guanine at or above 20 μM rendered Jurkat T cells resistant to MPA. […]
compound,measurement,setting,value
"COc1c(C)c2c(c(O)c1C/C=C(\C)CCC(=O)O)C(=O)OC2 [MPA, 6-(4-hydroxy-6-methoxy-7-methyl-3-oxo-1,3-dihydroisobenzofuran-5-yl)-4-methyl-hex-4-enoic acid]",effect of exogenous guanine on MPA inhibition of HUVEC proliferation,[1],partially reversed
same,effect of guanosine on the cell cycle effect of MPA,HUVEC,completely reversed
same,effect of exogenous guanine on MPA inhibition of Jurkat T-cell proliferation,Jurkat T cells; guanine 10 μM,unaffected
same,effect of exogenous guanine on MPA inhibition of Jurkat T-cell proliferation,Jurkat T cells; guanine 20 μM and 50 μM,completely reversed
